{"source": "patent US20090137652A1", "about": "“METHODS FOR NEUROPROTECTION” (priority 2005, published 2009)", "key": {"[1]": {"system": "rats subjected to li-pilo SE", "test": "Quantification of cell densities 14 days after lithium-pilocarpine SE (Example 2)", "type": "in vivo, rat", "settings": "14 days after SE", "description": "All rats received lithium chloride (3 meq/kg, i.p., Sigma, St Louis, Mo., U.S.A.) and about 20 h later, all animals received also methylscopolamine bromide (1 mg/kg, s.c., Sigma) that was administered to limit the peripheral effects of the convulsant. SE was induced by injecting pilocarpine hydrochloride (25 mg/kg, s.c., Sigma) 30 min after methylscopolamine. The effects of increasing doses of TC (RWJ) were studied in 5 groups of rats. […] The control group received vehicle instead of pilocarpine and TC.\nAt the moment, neuronal counting is still in progress in the second group of animals studied for epileptogenesis and long-term counting and the data concerning that part of the study will not be included in the present report. For neuronal counting, animals were deeply anesthetized with […] pentobarbital (Dolethal®, Vetoquinol, Lure, France). Brains were then removed and frozen. Serial 20 μm slices were cut in a cryostat, air-dried during several days before thionine staining. […] The grid of counting was placed on a well defined area of the cerebral structure of interest and counting was carried out with a microscopic enlargement of 200- or 400-fold defined for each single cerebral structure. Cell counts were performed twice on each side of three adjacent sections for each region by a single observer unaware of the animal's treatment. The number of cells obtained in the 12 counted fields in each cerebral structure was averaged. This procedure was used to minimize the potential errors that could result from double counting leading to overestimation of cell numbers. […] Counts involved only neurons with cell bodies larger than 10 μm. Cells with small cell bodies were considered as glial cells and were not counted.\nFor neuronal damage and epileptogenesis, statistical analysis between groups was performed by means of a one-way analysis of variance followed by a post-hoc Dunnett or Fisher test using the Statistica software."}, "[2]": {"system": "rats subjected to Li-pilo induced SE", "test": "Quantification of cell densities after lithium-pilocarpine SE (Example 1)", "type": "in vivo, rat", "settings": "pilo-DZP compared to saline-saline rats", "description": "The effects of increasing doses of the test compound were studied on 3 groups of rats. The animals of the first group received 10 mg/kg of the test compound, i.p., 1 h after the onset of SE (pilo-TC10) while the animals of groups 2 and 3 received 30 and 60 mg/kg of the test compound (pilo-TC30 and pilo-TC60), respectively.\nAnother group was injected with 2 mg/kg diazepam (DZP, i.m.) at 1 h after the onset of SE. This is a standard treatment to improve animals survival after SE (pilo-DZP). The control group received saline instead of pilocarpine and the test compound (saline-saline). The pilo-test compound rats surviving SE were then injected about 10 h after the first test compound injection with a second i.p. injection of the same dose of the test compound and were maintained under a twice daily treatment with the test compound for 6 additional days. Pilo-DZP received a second injection of 1 mg/kg DZP on the day of SE at about 10 h after the first one. Thereafter, Pilo-DZP and saline-saline rats received twice daily an equivalent volume of saline.\nQuantification of cell densities was performed at […] after SE on 8 pilo-DZP, 8 pilo-TC10, 7 pilo-TC30, 7 pilo-TC60, and 6 saline-saline rats. At 14 days after SE, animals were deeply anesthetized with […] pentobarbital (Dolethal®, Vetoquinol, Lure, France. Brains were then removed and frozen. Serial 20 μm slices were cut in a cryostat, air-dried during several days before thionine staining.\nQuantification of cell densities was performed with a 10×10 boxes 1 cm^2 microscopic grid on coronal sections according to the stereotaxic coordinates of the rat brain atlas (Paxinos and Watson, 1986, The Rat brain in Stereotaxic Coordinates, 2nd ed. Academic Press, San Diego). Cell counts were performed twice in a blind manner and were the average of at least 3 values from 2 adjacent sections in each individual animal. Counts involved only cells larger than 10 μm, smaller ones being considered as glial cells.\nFor the comparison of the characteristics of SE in pilo-saline and pilo-test compound animals, a non-paired Student's t-test was used. The comparison between the number of rats seizing in both groups was performed by means of a Chi square test. For neuronal damage, statistical analysis between groups was performed using ANOVA followed by a Fisher's test for multiple comparisons using the Statview software (Fisher R A, 1946a, Statistical Methods for Research Workers (10th edition) Oliver & Boyd, Edinburgh; Fisher R A, 1946b, The Design of Experiments (4th edition) Oliver & Boyd, Edinburgh)"}, "[3]": {"settings": "DZP rats compared to control rats"}, "[4]": {"settings": "DZP rats compared to control saline-treated rats"}, "[5]": {"settings": "pilo-DZP (2.5 mg/kg i.m.), n = 7"}}, "note": "Where “and” joins values, the source holds several entries; their conditions need not be identical. Equal values may be shown once."}
{"smiles": "CN1C(=O)CN=C(c2ccccc2)c2cc(Cl)ccc21", "note": "[DZP, diazepam, reference compound]", "values": [{"measurement": "neurons surviving, all parts of the entorhinal cortex", "setting": "[1]; DZP group", "result": "27-81%"}, {"measurement": "neuronal damage, amygdala central nucleus", "setting": "[1]; [3]", "result": "no neuronal damage"}, {"measurement": "neuronal drop out, CA1 region of the hippocampus (pyramidal cell layer)", "setting": "[1]; [3]", "result": 85, "unit": "%"}, {"measurement": "neuronal drop out, amygdala basolateral nucleus", "setting": "[1]; [3]", "result": 73, "unit": "%"}, {"measurement": "neuronal drop out, amygdala medial dorsal anterior nucleus", "setting": "[1]; [3]", "result": 53, "unit": "%"}, {"measurement": "neuronal drop out, thalamus central medial nucleus", "setting": "[1]; [3]", "result": 34, "unit": "%"}, {"measurement": "neuronal drop out, thalamus dorsolateral medial dorsal nucleus", "setting": "[1]; [3]", "result": 40, "unit": "%"}, {"measurement": "neuronal drop out, thalamus mediodorsal central nucleus", "setting": "[1]; [3]", "result": 18, "unit": "%"}, {"measurement": "neuronal drop out, thalamus mediodorsal lateral nucleus", "setting": "[1]; [3]", "result": 24, "unit": "%"}, {"measurement": "neuronal loss, CA3 region", "setting": "[1]; [3]", "result": 40, "unit": "%"}, {"measurement": "neuronal loss, amygdala medial ventral posterior nucleus", "setting": "[1]; [3]", "result": 38, "unit": "%"}, {"measurement": "neuronal loss, hilus of the dentate gyrus", "setting": "[1]; [3]", "result": "65% and 66%"}, {"measurement": "neuronal loss, thalamus mediodorsal nucleus", "setting": "[1]; [3]", "result": 49, "unit": "%"}, {"measurement": "neuronal loss, ventral lateral division of the dorsolateral thalamic nucleus", "setting": "[1]; [3]", "result": 90, "unit": "%"}, {"measurement": "damage, dorsal entorhinal cortex layer II", "setting": "[1]; [4]", "result": 18, "unit": "%"}, {"measurement": "damage, dorsal entorhinal cortex layers III-IV", "setting": "[1]; [4]", "result": 24, "unit": "%"}, {"measurement": "damage, ventral entorhinal cortex layer II", "setting": "[1]; [4]", "result": "22% and 19%"}, {"measurement": "damage, ventral entorhinal cortex layers III/IV", "setting": "[1]; [4]", "result": "74% and 73%"}, {"measurement": "neuronal loss, piriform cortex dorsal layer II", "setting": "[1]; [4]", "result": 66, "unit": "%"}, {"measurement": "neuronal loss, piriform cortex layer III", "setting": "[1]; [4]", "result": 94, "unit": "%"}, {"measurement": "neuronal loss, piriform cortex ventral layer II", "setting": "[1]; [4]", "result": 89, "unit": "%"}, {"measurement": "number of neuronal cell bodies, Amygdala, Basolateral", "setting": "[1]; [5]", "result": "12.8 ± 5.3"}, {"measurement": "number of neuronal cell bodies, Amygdala, Medial, dorsal anterior", "setting": "[1]; [5]", "result": "40.0 ± 2.5"}, {"measurement": "number of neuronal cell bodies, Amygdala, Medial, ventral posterior", "setting": "[1]; [5]", "result": "21.8 ± 2.4"}, {"measurement": "number of neuronal cell bodies, Cerebral cortex, Entorhinal, layer II, dorsal", "setting": "[1]; [5]", "result": "23.5 ± 0.7"}, {"measurement": "number of neuronal cell bodies, Cerebral cortex, Entorhinal, layer II, ventral", "setting": "[1]; [5]", "result": "21.7 ± 1.3"}, {"measurement": "number of neuronal cell bodies, Cerebral cortex, Entorhinal, layer III/IV, dorsal", "setting": "[1]; [5]", "result": "22.3 ± 0.5"}, {"measurement": "number of neuronal cell bodies, Cerebral cortex, Entorhinal, layer III/IV, ventral", "setting": "[1]; [5]", "result": "7.7 ± 2.3"}, {"measurement": "number of neuronal cell bodies, Cerebral cortex, Piriform, layer II, dorsal", "setting": "[1]; [5]", "result": "12.6 ± 4.2"}, {"measurement": "number of neuronal cell bodies, Cerebral cortex, Piriform, layer II, ventral", "setting": "[1]; [5]", "result": "3.6 ± 0.7"}, {"measurement": "number of neuronal cell bodies, Cerebral cortex, Piriform, layer III", "setting": "[1]; [5]", "result": "1.2 ± 1.2"}, {"measurement": "number of neuronal cell bodies, Hippocampus, CA1 area", "setting": "[1]; [5]", "result": "10.9 ± 1.9"}, {"measurement": "number of neuronal cell bodies, Hippocampus, CA3 area", "setting": "[1]; [5]", "result": "31.3 ± 2.9"}, {"measurement": "number of neuronal cell bodies, Hippocampus, Hilus", "setting": "[1]; [5]", "result": "33.5 ± 3.0"}, {"measurement": "number of neuronal cell bodies, Thalamus, Central medial", "setting": "[1]; [5]", "result": "74.2 ± 7.4"}, {"measurement": "number of neuronal cell bodies, Thalamus, Dorsolateral, medial, dorsal", "setting": "[1]; [5]", "result": "61 ± 6.3"}, {"measurement": "number of neuronal cell bodies, Thalamus, Dorsolateral, ventral lateral", "setting": "[1]; [5]", "result": "9.7 ± 2.5"}, {"measurement": "number of neuronal cell bodies, Thalamus, Mediodorsal central", "setting": "[1]; [5]", "result": "26.3 ± 1.8"}, {"measurement": "number of neuronal cell bodies, Thalamus, Mediodorsal lateral", "setting": "[1]; [5]", "result": "19.6 ± 0.8"}, {"measurement": "number of neuronal cell bodies, Thalamus, Mediodorsal medial", "setting": "[1]; [5]", "result": "16.4 ± 1.9"}, {"measurement": "cell loss, CA1 region of the hippocampus (pyramidal cell layer)", "setting": "[2]", "result": "70% and 75%"}, {"measurement": "cell loss, CA3a", "setting": "[2]", "result": 54, "unit": "%"}, {"measurement": "cell loss, CA3b", "setting": "[2]", "result": 31, "unit": "%"}, {"measurement": "cell loss, dorsal entorhinal cortex layer II", "setting": "[2]", "result": 9, "unit": "%"}, {"measurement": "cell loss, dorsal entorhinal cortex layers III-IV", "setting": "[2]", "result": 15, "unit": "%"}, {"measurement": "cell loss, hilus of the dentate gyrus", "setting": "[2]", "result": 73, "unit": "%"}, {"measurement": "cell loss, lateral thalamic nucleus", "setting": "[2]", "result": 91, "unit": "%"}, {"measurement": "cell loss, mediodorsal thalamic nucleus", "setting": "[2]", "result": 56, "unit": "%"}, {"measurement": "cell loss, piriform cortex layer II", "setting": "[2]", "result": 53, "unit": "%"}, {"measurement": "cell loss, piriform cortex layers III-IV", "setting": "[2]", "result": "total"}, {"measurement": "cell loss, ventral entorhinal cortex layer II", "setting": "[2]", "result": "totally preserved"}, {"measurement": "cell loss, ventral entorhinal cortex layers III-IV", "setting": "[2]", "result": 44, "unit": "%"}]}
